For 67 compounds, Inhibition results are on record in ChEMBL document CHEMBL3137356, “MMV Box Cryptosporidium parvum screening set”.

In general, Inhibition refers to the drop in the measured response relative to a control, in per cent.

This assay has as its system Cryptosporidium parvum. The assay is described as follows: MMV: Cryptosporidium parvum oocysts (Iowa Strain) were prepared for use by treatment with 10 mM HCl (37 degrees C, 10 min) followed by 2 mM sodium taurocholate in phosphate-buffered saline (PBS) with Ca2+ and Mg2+ (16 degrees C, 10 min) in order to stimulate excystation. The high-throughput screen was carried out by inoculating >90% confluent human ileocecal adenocarcinoma (HCT-8) cells (ATCC) with ~5.5 x 10^3 primed oocysts per well. Experimental compounds or DMSO (vehicle) were added three hours after infection, and cells were incubated for 48 hours. Format: functional.

In the case of `Cn1c(=O)c2cc(C(=O)NCCCN3CCCCCC3)sc2c2ccccc21`, the Inhibition was -13.68%.
The same measure for `O=C(CCc1ccccc1)c1ccccc1OCC(O)CN1CCCCC1` (configuration not stated): -4.075%; for `CCN(CC)c1cc(C)c2cc(NC(=O)c3cccc(OC)c3)ccc2n1`: -27.53%; for `COc1ccc2c(c1)OC(O)(C(F)(F)C(F)(F)F)CC2=O` (configuration not stated): 33.72%.
Take `CC(=O)c1ccc(NC(=O)CSc2nc(-c3ccccc3Cl)ns2)cc1`: the Inhibition is listed as 23.33%.
For the compound `Cc1cccc(N2C(=O)C3C(C2=O)C2(c4ccccc4)C(=O)C3(c3ccccc3)C(c3ccc4c(c3)OCO4)=C2c2ccc3c(c2)OCO3)c1` (configuration not stated), the Inhibition stood at 1.02%.
As to `COc1ccccc1CNC(=O)CCn1c(=O)[nH]c2ccccc2c1=O`, the Inhibition worked out at 3.729%.
Next, `FC(F)(F)c1cccc(Nc2nc(-c3ccccc3)nc3ncccc23)c1`: -10.43%.
Next, `CCN(CC)CCNc1ncnc2c1[nH]c1ccc(Br)cc12`: -47.02%; `Cc1ccc(-c2cc3c(SCC(=O)Nc4cc(C(F)(F)F)ccc4Cl)nccn3n2)cc1`: -45.33%; `CCOC(=O)c1cn(CC)c2cc(N(C)CCc3ccc(OC)c(OC)c3)c(F)cc2c1=O`: 43.56%.
The same measure for `CCOc1ccc(-n2cc(-c3ccccc3)c3c(SCc4cc(C)ccc4C)ncnc32)cc1`: -2.262%; for `COc1ccc(CN2CCCC(C(=O)c3ccc(C(F)(F)F)cc3)C2)c(O)c1` (configuration not stated): -4.732%.
As to `CCc1c(C)c(=N)c2ccccc2n1C.I`, the Inhibition is given as 11.41%.
Turning to `O=C(NCc1ccco1)C1CCN(S(=O)(=O)c2ccc(Br)cc2)CC1`, the Inhibition is 29.65%.
Next, `O=C(NCC(c1ccsc1)N1CCCCCC1)c1ccc(C(F)(F)F)cc1` (configuration not stated): -22.24%.
The same measure for `Br.Cc1ccc(C)c(-c2csc(Nc3ccc(C)c(C)c3)n2)c1`: -25.23%.
With `CCCCCCC(O)(c1ccc(F)cc1)C(CN1CCOCC1)c1ccccc1.Cl` (configuration not stated), the Inhibition is on record as 35.55%.
Take `OC(CNC1CCCC1)Cn1c2ccccc2c2ccccc21` (configuration not stated): the Inhibition is -40.56%.
Consider `Cc1c(C)n(Cc2ccc(F)cc2)c2ccc(C(=O)NCc3ccco3)cc12`, for which the Inhibition is given as -17.08%.
Regarding `CCCC(c1nnnn1C1CCCCC1)N1CCN(C(=O)c2ccco2)CC1.Cl` (configuration not stated), the Inhibition was -55.52%.
Next, `Oc1ccc(Cl)cc1CNc1nc2ccccc2[nH]1`: -2.947%; `CC(=O)Nc1nnc(SCc2c(C)cc(C(C)(C)C)cc2C)s1`: -2.709%.
For the compound `CCOc1cc2c(cc1OCC)C(c1cc(Cl)c(O)c(OCC)c1)NCC2` (configuration not stated), the Inhibition is recorded as -10.58%.
The same measure for `CCOc1ccc(Nc2c3ccccc3nc3ccccc23)cc1.Cl`: 26.95%; for `Cc1ccc2c(C)nc(Nc3nc(C)cc(-c4ccccc4)n3)nc2c1`: -62.95%; for `CCOc1ccc2c(c1)CN(Cc1ccc(Cl)cc1)CO2`: -64.93%.
Next, `CN(C)c1ccc(N=Cc2ccc(N3CCOCC3)cc2)cc1`: -8.003%; `c1ccc2cc3c(Nc4ccc(N5CCOCC5)cc4)ccnc3cc2c1`: 17%.
Consider `CCOC(=O)c1c(NC(=O)c2ccccc2)sc2c(O)c(CN(CC)CC)ccc12`, for which the Inhibition is recorded as 50.63%.
Consider `Cc1cc(N(C)C)nc(Nc2ccc(NC(=O)Nc3ccccc3)cc2)n1`, for which the Inhibition is listed as -29.16%.
As for `CCN(CC)CCn1c(=N)n(CC(O)c2ccc(Cl)c(Cl)c2)c2ccccc21.Cl` (configuration not stated), the Inhibition is 14.91%.
The same measure for `O=C(NCc1ccco1)C1CCN(S(=O)(=O)c2ccc(Cl)cc2)CC1`: -53.31%; for `COCCn1c(C)nc2ccccc2c1=O`: -17.93%; for `CCN(CC)c1ccc(NC(=O)c2cccs2)cc1`: -55.73%.
The same measure for `O=C(CCl)NCCOc1ccc(Cl)cc1Cl`: 7.535%.
Next, `CCOc1ccc(N2C(N)=NC(N)=NC2(C)C)cc1.Cl`: -26.74%; `COc1cc(CNCCc2ccc(Cl)cc2)cc(OC)c1O`: 5.38%; `COc1cccc(C2(C)Nc3ccccc3-c3nc4ccccc4n32)c1` (configuration not stated): -28.25%.
Consider `CCCCCCc1cc2cc(-c3nc4ccccc4[nH]3)c(=Nc3ccccc3C)oc2cc1O`, for which the Inhibition is recorded as -3.461%.
For the compound `COCCNC(=O)c1ccc(OC2CCN(Cc3ccc(F)c(F)c3)CC2)c(Cl)c1`, the Inhibition is 10.52%.
Next, `O=C(Nc1nc(-c2ccccn2)cs1)c1ccccc1Br`: 62.15%; `C[n+]1c2ccccc2nc2ccc(NCCO)cc21`: -27.1%.
Next, `CN1C=C(c2ccc3ccccc3n2)C(c2c[nH]c3ccccc23)c2ccccc21` (configuration not stated): -24.69%; `COc1ccc(C2Sc3ccccc3N=C3C2=C(O)c2ccccc23)cc1` (configuration not stated): 19.55%.
Take `CC(C)c1ccc(CNCC(O)c2ccccc2)cc1.Cl` (configuration not stated): the Inhibition turned out to be 13.18%.
Take `O=C(NNc1cc(N2CCCC2)nc(N2CCCC2)n1)c1ccccc1`: the Inhibition is given as -52.02%.
Regarding `O=c1nc(C=Cc2ccc(Br)cc2)oc2ccccc12`, the Inhibition was found to be 36.68%.
With `COc1ccc(/C=C2/SC(=Nc3ccccc3)NC2=O)cc1`, the Inhibition came out at 35.48%.
Next, `COc1cccc(Nc2nc(N)c3ccccc3n2)c1.Cl`: 27.99%; `CCOc1ccc(CCNC(=O)c2cccs2)cc1OCC`: 10.2%.
Next, `CCOC(=O)C1=C(C)N=c2sc(=Cc3cc(Cl)ccc3O)c(=O)n2C1c1ccc(OC)cc1` (configuration not stated): -31.98%; `CCn1c(SCC(=O)Nc2cc(C(F)(F)F)ccc2Cl)nc2ccccc2c1=O`: -35.13%; `O=C(Nc1cccc(-c2nc3ccccc3[nH]2)c1)c1cccc(NC(=O)c2ccco2)c1`: 23.53%.
Next, `COc1ccc(Nc2nc(N/N=C/c3ccc(O)cc3)nc(Nc3ccc([N+](=O)[O-])cc3)n2)cc1`: -49.8%; `CCC1(C)CC(CCNCc2ccccc2O)(c2ccc(C)cc2)CCO1` (configuration not stated): -2.346%.
Regarding `O=C(Cc1ccccc1)NC(c1ccc(Cl)cc1)c1c(O)ccc2ccccc12` (configuration not stated), the Inhibition is recorded as -13.28%.
In the case of `O=C(Nc1ccc(-c2nc3cc4ccccc4cc3[nH]2)cc1)c1cccc(Br)c1`, the Inhibition is reported as -10.01%.
The same measure for `Cl.Cn1c(=O)n(C)c2cc(CNCCNc3ccnc4cc(Cl)ccc34)ccc21`: 20.67%.
For `COc1cc(OC)cc(N2C(=O)N(Cc3ccc(C(C)(C)C)cc3)c3ccccc3S2(=O)=O)c1`, the Inhibition was -14.44%.
`COc1ccc(CCn2c(=N)c(C(=O)NCc3cccnc3)cc3c(=O)n4cccc(C)c4nc32)cc1`: the Inhibition came out at 0.9407%.
`COc1ccc(C(=O)C2CC2c2ccc(Cl)cc2)cc1` (configuration not stated): the Inhibition is on record as -36.26%.
On to `Cc1ccc(NC(=O)Nc2cccc(Cl)c2)cc1F`, for which the Inhibition was -0.4391%.
With `Oc1c(CN2CCN(c3ccccc3F)CC2)cc(Br)c2cccnc12`, the Inhibition was 61.72%.
Next, `COc1ccc2nc(N)nc(C)c2c1`: 15.73%; `CN(C)c1ccc(-c2nc3cc(N)ccc3[nH]2)cc1`: -41.71%; `COc1cccc(Cn2c(Oc3ccccc3)nc3c2c(=O)n(C)c(=O)n3C)c1`: -39.36%.
